In test [1] the target is Voltage-dependent T-type calcium channel subunit alpha-1H (Homo sapiens, UniProt O95180). Format: functional.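 Further: channel activity triggered by adding a high calcium stimulation buffer.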
The target in test [2] is T1, Aminopeptidase N (Plasmodium falciparum FcB1/Columbia, UniProt O96935).
T1 sequence (O96935 whole entry): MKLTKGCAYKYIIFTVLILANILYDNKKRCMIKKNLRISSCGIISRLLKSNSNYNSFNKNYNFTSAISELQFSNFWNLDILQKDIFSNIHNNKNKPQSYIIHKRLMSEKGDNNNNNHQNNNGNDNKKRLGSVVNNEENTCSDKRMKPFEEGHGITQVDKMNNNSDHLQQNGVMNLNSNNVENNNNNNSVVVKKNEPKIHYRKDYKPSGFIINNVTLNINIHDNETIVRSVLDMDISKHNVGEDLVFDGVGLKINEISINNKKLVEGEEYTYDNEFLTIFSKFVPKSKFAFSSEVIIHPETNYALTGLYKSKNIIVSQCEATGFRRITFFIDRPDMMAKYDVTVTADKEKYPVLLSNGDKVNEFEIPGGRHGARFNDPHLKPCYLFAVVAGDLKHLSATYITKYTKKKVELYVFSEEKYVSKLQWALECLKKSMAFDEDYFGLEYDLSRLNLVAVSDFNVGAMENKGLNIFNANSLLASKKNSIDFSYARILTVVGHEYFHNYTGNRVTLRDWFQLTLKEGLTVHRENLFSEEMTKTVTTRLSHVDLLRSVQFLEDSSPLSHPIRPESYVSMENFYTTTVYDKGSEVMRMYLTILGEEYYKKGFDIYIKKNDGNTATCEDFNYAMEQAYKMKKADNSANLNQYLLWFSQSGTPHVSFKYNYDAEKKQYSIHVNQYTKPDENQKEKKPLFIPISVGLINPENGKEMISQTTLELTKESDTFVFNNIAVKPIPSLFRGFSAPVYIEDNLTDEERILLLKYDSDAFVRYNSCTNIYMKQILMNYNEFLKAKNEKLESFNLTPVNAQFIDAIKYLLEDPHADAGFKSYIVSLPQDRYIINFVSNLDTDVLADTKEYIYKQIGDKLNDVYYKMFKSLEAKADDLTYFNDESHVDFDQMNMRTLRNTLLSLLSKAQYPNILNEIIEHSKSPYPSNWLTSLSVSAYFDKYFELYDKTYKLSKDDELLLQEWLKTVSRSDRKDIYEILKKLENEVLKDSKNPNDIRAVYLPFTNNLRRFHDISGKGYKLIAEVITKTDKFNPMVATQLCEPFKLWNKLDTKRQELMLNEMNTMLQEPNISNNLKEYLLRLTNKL
Briefly: malaria alanyl aminopeptidase activity blockers – biochemical, fluorogenic H-Leu-NHMec substrate, 1536-well (AID 1445). Further details: species or system Plasmodium falciparum 3D7, 3D7.

A short description of test [3]: Trypanosoma cruzi growth suppression in host cells – NIH3T3 host cells, beta-gal luminescence, confirmation (AID 2044).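 Further: intracellular parasites grown in NIH/3T3 mouse fibroblasts as host cells; luminescent beta-galactosidase reporter signal from transgenic T. cruzi replicating inside host cells; inhibitors lower the luminescence signal.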 Format: functional, cell-based.
The nature of test [4]: NIH3T3 cell viability loss – ATP luminescence, mouse fibroblasts, counter-screen, dose response (AID 2010).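 Further: cells exposed to compound for about 90 hours before reading.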 Format: functional, cell-based. (In general: A counterscreen serves to expose hits that act by an unwanted route or on another target.)
Test [5] concerns the target Cytochrome P450 2D6 (Homo sapiens, UniProt P10635).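 Further: CYP2D6 member of a cytochrome P450 panel assay.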
Test [6] addresses Cytochrome P450 2C9 (Homo sapiens, UniProt P11712).
Test [7] in a line: cells.
Test [8] is described as follows: cells. In kind it is functional.
Test [9] has as its target T2, RNA-binding protein pos-1 (Caenorhabditis elegans, UniProt G5EF15).
T2 sequence (G5EF15 whole entry): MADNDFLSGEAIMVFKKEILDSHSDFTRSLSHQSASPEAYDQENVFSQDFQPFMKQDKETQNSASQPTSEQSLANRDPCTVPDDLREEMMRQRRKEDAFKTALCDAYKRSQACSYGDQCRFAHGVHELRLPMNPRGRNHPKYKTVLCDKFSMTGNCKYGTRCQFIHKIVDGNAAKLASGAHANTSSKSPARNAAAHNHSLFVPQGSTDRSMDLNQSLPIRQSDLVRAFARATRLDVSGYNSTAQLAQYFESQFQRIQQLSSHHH
As to the kind of experiment: disruptors of C. elegans POS-1 RNA interaction – biochemical, fluorescence polarization, dose response (AID 1964).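 Further: purified POS-1 fused to maltose binding protein made in E. coli; potency of compounds blocking POS-1 binding to fluorescent RNA.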 A general note: Fluorescence polarisation rises when a labelled molecule tumbles more slowly, as on binding a larger partner.

A short description of test [10]: Luminescence Cell-Based Dose Confirmation HTS to Identify Activators of 5'UTR Stem-Loop Driven Alpha-Synuclein mRNA Translation in H4 Neuroglioblastoma Cells. [Related pubchem assays: 1829 (Project Summary), 1814 (Primary HTS)]. Format: functional.
A short description of test [11]: Luminescence Cell-Based Dose Response HTS to Identify Activators of Luciferase Translation or Activity in H4 […] Cells. [Related pubchem assays: 1829 (Project Summary), 1814 (Primary HTS)]. In kind it is functional.
In test [12] the test system is H4. As to the kind of experiment: Luminescence Cell-Based Dose Response HTS to Identify Activators of 5'UTR Stem-Loop Driven Prion Protein mRNA Translation in H4 Neuroglioblastoma Cells. [Related pubchem assays: 1829 (Project Summary), 1814 (Primary HTS)]. In kind it is functional. As to conditions: Homo sapiens.
Test [13] has as its target T3, Zinc finger protein mex-5 (Caenorhabditis elegans, UniProt Q9XUB2).
T3 sequence (Q9XUB2 whole entry): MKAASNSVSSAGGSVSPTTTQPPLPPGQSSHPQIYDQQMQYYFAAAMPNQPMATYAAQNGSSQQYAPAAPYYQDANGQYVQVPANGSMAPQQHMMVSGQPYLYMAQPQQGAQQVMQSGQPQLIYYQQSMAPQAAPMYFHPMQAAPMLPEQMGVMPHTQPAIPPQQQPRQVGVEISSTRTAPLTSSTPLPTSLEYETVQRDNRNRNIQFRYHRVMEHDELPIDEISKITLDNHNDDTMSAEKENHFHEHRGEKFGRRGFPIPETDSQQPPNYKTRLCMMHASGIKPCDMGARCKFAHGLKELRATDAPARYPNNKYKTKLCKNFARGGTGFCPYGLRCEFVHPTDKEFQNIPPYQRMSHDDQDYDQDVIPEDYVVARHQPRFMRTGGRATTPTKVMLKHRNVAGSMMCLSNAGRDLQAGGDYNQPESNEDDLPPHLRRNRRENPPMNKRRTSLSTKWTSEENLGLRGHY
As to the kind of experiment: potency of MEX-5 RNA-binding blockers – biochemical, C. elegans, fluorescence polarization, dose response (AID 1960).

The target of test [14] is T4, Endoribonuclease toxin MazF (Escherichia coli K-12, UniProt P0AE70).
T4 sequence (P0AE70 whole entry): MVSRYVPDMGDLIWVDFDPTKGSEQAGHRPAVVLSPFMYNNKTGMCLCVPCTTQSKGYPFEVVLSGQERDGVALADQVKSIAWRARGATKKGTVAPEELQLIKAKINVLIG
As to the kind of experiment: activation of MazEF endoribonuclease cleavage – biochemical, fluorescence, single-stranded RNA substrate, uHTS hits, dose response (AID 588481). In kind it is functional.

Test [15] addresses T4, Endoribonuclease toxin MazF. As to the kind of experiment: substrate-only fluorescence increase artefacts – biochemical, single-stranded RNase substrate, counter-screen for MazEF activator project, dose response (AID 588502). In kind it is functional.
Test [16] can be described thus: NIH-3T3 fibroblast cytotoxicity, dose response, cytotoxicity control, cell-based, fluorescence, Alamar Blue, secondary assay (AID 2327).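 Further: NIH-3T3 mouse fibroblasts cultured with fluconazole at 8 µg/mL.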 Format: functional. (In general: The colour change of resazurin is a common sign of viable cells or microbes.)
Test [17] in a line: cells. In kind it is functional, cell-based.
The nature of test [18]: A Cell Based Secondary Assay To Explore Cytotoxicity of Compounds that Sensitize Mycobacterium Tuberculosis to Beta-Lactam Antibiotics. In kind it is functional.
The nature of test [19]: fluconazole-exposed Candida albicans growth modulators – fluorescence, retest, confirmation (AID 2467). In kind it is functional, cell-based.
Test [20] is described as follows: cells. In kind it is functional, cell-based. The source holds these as a separate data set.
Test [21] addresses T5, Microphthalmia-associated transcription factor (Homo sapiens, UniProt O75030).
T5 sequence (O75030 whole entry): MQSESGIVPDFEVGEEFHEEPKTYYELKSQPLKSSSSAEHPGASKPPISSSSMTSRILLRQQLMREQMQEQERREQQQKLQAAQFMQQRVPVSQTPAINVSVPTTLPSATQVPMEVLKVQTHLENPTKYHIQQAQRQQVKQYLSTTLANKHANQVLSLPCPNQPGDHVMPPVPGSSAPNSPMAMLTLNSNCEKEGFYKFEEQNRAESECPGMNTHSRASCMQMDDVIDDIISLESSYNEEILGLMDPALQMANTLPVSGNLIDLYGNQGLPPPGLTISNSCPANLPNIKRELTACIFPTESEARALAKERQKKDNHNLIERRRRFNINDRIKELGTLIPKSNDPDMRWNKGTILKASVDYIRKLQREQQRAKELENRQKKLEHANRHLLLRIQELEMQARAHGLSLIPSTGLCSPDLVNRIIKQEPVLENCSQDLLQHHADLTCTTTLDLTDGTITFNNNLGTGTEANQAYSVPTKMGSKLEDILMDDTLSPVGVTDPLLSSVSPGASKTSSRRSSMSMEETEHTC
Briefly: reducers of TRPM1 reporter luminescence, concentration series – cell-based, SK-MEL-5, cherry-picked, set 3, MITF inhibitor project, dose response (AID 493073).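 Further: SK-MEL-5 melanoma cells with luciferase driven by the MITF target TRPM1 promoter.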 In kind it is functional.

Calls of active or inactive are those of the source.

16 compounds from ChEMBL document CHEMBL1201862, “PubChem BioAssay data set” (2004) can be followed below.

Broadly, the EC50 is the midpoint of the concentration-response curve. Usually IC50 stands for the concentration at which inhibition is half-maximal. In general, AC50 refers to the midpoint of the concentration-response curve, whichever way the signal moves. As a reminder, the CC50 is the concentration at which the toxic effect on the cells reaches its halfway point.

Chain of Voltage-dependent T-type calcium channel subunit alpha-1H (O95180 whole entry): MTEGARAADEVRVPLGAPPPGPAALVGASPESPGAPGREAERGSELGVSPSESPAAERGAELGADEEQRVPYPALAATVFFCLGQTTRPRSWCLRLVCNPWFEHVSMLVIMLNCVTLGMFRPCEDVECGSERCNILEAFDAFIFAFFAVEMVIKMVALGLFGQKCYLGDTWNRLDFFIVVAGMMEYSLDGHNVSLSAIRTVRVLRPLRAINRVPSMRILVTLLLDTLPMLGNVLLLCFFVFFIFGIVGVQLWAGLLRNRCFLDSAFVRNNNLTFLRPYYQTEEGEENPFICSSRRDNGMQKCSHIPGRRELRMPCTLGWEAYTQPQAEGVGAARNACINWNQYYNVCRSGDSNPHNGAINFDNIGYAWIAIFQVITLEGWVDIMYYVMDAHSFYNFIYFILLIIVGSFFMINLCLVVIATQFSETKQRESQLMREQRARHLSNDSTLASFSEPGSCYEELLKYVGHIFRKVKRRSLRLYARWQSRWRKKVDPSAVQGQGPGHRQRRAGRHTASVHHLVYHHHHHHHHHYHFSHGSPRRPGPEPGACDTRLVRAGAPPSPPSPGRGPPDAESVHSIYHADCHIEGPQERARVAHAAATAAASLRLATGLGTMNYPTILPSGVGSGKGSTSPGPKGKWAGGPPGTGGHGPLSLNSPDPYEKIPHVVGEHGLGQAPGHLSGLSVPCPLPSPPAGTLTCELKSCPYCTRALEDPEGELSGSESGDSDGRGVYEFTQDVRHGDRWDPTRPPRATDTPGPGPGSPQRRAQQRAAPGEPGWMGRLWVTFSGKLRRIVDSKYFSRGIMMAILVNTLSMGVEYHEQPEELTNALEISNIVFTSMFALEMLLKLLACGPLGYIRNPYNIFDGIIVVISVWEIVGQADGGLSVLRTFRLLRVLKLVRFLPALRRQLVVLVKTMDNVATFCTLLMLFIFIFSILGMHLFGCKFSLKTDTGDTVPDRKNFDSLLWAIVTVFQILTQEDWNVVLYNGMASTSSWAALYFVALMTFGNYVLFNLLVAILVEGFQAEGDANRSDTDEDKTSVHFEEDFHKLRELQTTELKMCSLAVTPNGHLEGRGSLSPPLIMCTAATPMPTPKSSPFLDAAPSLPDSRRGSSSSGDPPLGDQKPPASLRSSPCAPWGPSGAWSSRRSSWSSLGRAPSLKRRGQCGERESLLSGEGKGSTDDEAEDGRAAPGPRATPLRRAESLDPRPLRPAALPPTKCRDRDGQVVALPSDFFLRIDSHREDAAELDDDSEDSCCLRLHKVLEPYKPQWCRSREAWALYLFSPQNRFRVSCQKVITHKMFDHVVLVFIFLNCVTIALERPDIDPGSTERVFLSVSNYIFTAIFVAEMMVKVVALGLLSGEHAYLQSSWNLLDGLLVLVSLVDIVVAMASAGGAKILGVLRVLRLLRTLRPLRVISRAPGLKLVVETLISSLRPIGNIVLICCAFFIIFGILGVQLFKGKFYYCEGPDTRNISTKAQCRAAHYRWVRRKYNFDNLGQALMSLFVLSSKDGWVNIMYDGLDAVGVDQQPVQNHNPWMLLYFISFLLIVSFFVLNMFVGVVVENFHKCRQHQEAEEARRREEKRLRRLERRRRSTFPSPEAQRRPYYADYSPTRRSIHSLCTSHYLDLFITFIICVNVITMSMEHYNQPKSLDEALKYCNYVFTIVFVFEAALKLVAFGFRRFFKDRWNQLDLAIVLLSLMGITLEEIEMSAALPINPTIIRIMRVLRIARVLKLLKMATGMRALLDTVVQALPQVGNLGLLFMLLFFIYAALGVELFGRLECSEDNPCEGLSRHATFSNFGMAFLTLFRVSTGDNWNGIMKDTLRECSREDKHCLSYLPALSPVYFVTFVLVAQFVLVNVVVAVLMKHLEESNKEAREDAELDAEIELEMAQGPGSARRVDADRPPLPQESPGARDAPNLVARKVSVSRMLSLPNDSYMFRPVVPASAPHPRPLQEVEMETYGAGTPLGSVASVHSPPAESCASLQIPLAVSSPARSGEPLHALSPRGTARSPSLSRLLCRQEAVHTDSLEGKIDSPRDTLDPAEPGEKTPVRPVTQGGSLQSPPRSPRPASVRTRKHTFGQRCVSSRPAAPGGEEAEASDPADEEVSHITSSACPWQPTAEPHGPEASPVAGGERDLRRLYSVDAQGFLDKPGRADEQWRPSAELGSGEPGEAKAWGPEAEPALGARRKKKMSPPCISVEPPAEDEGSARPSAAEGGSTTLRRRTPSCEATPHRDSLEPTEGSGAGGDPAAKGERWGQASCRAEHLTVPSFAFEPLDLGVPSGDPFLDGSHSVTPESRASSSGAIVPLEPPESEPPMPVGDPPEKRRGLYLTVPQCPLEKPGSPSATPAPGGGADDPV
Chain of Cytochrome P450 2C9 (P11712 whole entry): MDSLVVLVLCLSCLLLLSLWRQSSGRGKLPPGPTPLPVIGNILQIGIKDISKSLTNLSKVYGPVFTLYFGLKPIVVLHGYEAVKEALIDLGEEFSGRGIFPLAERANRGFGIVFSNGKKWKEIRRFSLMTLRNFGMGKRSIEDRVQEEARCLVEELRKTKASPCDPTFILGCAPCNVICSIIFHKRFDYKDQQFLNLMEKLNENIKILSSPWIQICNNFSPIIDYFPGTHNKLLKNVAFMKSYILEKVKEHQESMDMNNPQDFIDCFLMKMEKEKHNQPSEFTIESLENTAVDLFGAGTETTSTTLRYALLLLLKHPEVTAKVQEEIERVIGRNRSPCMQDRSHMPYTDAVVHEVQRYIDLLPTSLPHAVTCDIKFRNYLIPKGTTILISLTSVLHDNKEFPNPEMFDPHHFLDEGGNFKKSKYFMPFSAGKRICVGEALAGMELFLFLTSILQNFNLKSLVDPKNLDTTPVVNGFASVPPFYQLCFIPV
Chain of Cytochrome P450 2D6 (P10635 whole entry): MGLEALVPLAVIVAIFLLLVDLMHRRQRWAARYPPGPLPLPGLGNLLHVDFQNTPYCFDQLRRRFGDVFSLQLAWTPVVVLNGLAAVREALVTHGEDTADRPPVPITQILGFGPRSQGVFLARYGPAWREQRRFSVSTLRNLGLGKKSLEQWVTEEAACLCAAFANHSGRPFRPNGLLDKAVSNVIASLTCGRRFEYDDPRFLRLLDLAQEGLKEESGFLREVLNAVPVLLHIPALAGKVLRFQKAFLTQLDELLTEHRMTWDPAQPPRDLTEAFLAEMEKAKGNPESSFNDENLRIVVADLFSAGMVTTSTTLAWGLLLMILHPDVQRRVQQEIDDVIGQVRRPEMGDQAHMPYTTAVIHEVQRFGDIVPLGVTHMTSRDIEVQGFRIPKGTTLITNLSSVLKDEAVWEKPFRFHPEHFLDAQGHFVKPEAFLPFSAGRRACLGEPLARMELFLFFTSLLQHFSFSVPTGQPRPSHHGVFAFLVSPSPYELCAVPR

In the case of `CC1CCN(S(=O)(=O)c2ccc(NC(=O)Cc3ccccc3)cc2)CC1`, the EC50 in test [1] is 5.25 µM (active).
With `Cc1ccc(CSc2nnc(SCC(=O)N/N=C/c3ccccc3OCC(=O)O)s2)cc1`, the IC50 in [2] is 30.6 µM (active).
On to `Cc1ccc(-n2nnnc2-c2cnc(N3CCCC3)nc2C(F)(F)F)cc1`, for which the EC50 in test [1] is 8.9 µM (active).
As to `Cc1ccc(-c2nn(C)c(=O)c3ccccc23)cc1CNC(=O)c1ccco1`, the IC50 in [2] was 21.1 µM (active).
Turning to `O=C(CCCc1c[nH]c2ccccc12)NCc1ccc2c(c1)OCO2`, the EC50 in test [1] was 2.31 µM (active).
With `O=C(CCCn1cnc([N+](=O)[O-])n1)Nc1ccc(Cl)c(Cl)c1`, the EC50 in [3] is < 0.1 µM (active); in test [4] it was > 60 µM (not active); in test [7], 0.054 µM (active). Moreover, the AC50 in test [5] and in [6] was 15.8 µM (inconclusive) in each case.
Turning to `CCc1nnc(NS(=O)(=O)c2ccc(NC(=S)NC(=O)c3ccc(OC)cc3)cc2)s1`, the IC50 in test [2] was 60.5 µM (active).
On to `COc1ccccc1OCc1nc(Cc2ccc(Cl)cc2)no1`, for which the EC50 in [1] was 7.9 µM (active).
In the case of `O=C(c1ccc([N+](=O)[O-])o1)N1CCc2ccccc2C1`, the results for the EC50 in [3], in test [4] and in [7] were < 0.1 µM (active), > 60 µM (not active) and 0.042 µM (active), respectively. Also, the half-maximal inhibitory concentration (IC50) in [8] is 0.45 µM (active).
For the compound `Cc1nn(-c2ccccc2)c(Cl)c1/C=C1\SC(=S)NC1=O`, the IC50 in test [2] is 46.8 µM (active).
Regarding `O=C(Cn1nnc2ccccc2c1=O)N[C@@H](Cc1c[nH]c2ccccc12)C(=O)O`, the IC50 in [2] was 71.6 µM (active).
With `CCN1C(=O)/C(=C2/C=Cc3ccccc3N2C)OC1=S`, the concentration giving a half-maximal response (EC50) in test [9] is 55.8 µM (active); in test [10] it was 2.39 µM (active); in test [11] it was 4.49 µM (active); in test [12], 39.4 µM (active); in test [13], 3.94 µM (inconclusive); in test [14] it was > 99 µM (inactive). Further, in test [15], the EC50 is > 99 µM (inactive).
As to `CCOc1cccc(CN2CCCC(N3CCc4cc(OC)c(OC)cc4C3)C2)c1O` (stereo not given), the EC50 in test [3] was < 0.1 µM (active); in test [4], > 60 µM (not active); in [7] it was 0.084 µM (active).
Turning to `O=C(CSCC(=O)Nc1ccccc1)N/N=C/c1c(O)ccc2ccccc12`, the EC50 in [16] is > 160 µM (inactive); in [17], 9.25 µM (active); in [19] it was > 38 µM (not active); in test [20], > 350 µM (not active); in [14] it was > 99 µM (inactive); in test [15] it was > 99 µM (inactive). In addition, the CC50 in test [18] was 6.22 µM (active). Moreover, in test [21], the AC50 is 3.34 µM (active).
Consider `CC(C)Oc1cccc(C(=O)C2CCCN(Cc3ccc(Oc4ncccn4)cc3)C2)c1` (stereo not given), for which the half-maximal effective concentration (EC50) in test [3] is < 0.1 µM (active); in test [4], > 60 µM (not active); in test [7], 0.081 µM (active).
For `Nc1nonc1C(=O)N/N=C/c1ccc(-c2ccc(Cl)c(C(=O)O)c2)o1`, the IC50 in test [2] is 43.8 µM (active).
